Reference: article PMC5480290 (Journal of the American Chemical Society, 2016)

Columns and labels:
LBT-PglBCl-Δ1-12 [1] = target: T1, LBT-PglBCl-Δ1-12 (Campylobacter lari, UniProt B9KDD4); assay type: binding; conditions: Tb^3+ relative to LBT-PglB
LBT-PglBCj-Δ1-11 = LBT-PglBCj-Δ1-11 (Campylobacter jejuni subsp. jejuni serotype O:2, UniProt Q0P9C8); assay type: binding
LBT-PglBCl-Δ1-12 [2] = target: T1, LBT-PglBCl-Δ1-12; assay type: binding; conditions: read-out: KD (glycan substrate); LRET titration, UndPPT-Fl from 0.014 to 5 μM, luminescence at 544 nm
PglBCj = assay type: biochemical, Campylobacter jejuni

| Compound | Tb^3+ saturation stoichiometry (LBT-PglBCl-Δ1-12 [1]) | Tb^3+ saturation stoichiometry (LBT-PglBCj-Δ1-11; Tb^3+ relative to LBT-PglB) | Kd (LBT-PglBCj-Δ1-11; read-out: Tb^3+ KD, estimated, sensitized luminescence at 544 nm) [nM] | Kd (LBT-PglBCl-Δ1-12 [2]) [nM] | tolerated as glycosyl donor substrate (PglBCj) |
| --- | --- | --- | --- | --- | --- |
| [Tb+3] [Tb^3+, terbium] | saturated at one molar equivalent | saturated at one molar equivalent | 2300 | – | – |
| Und-PP-diNAcBac-GalNAc-GalNAz conjugated to acetylene-545 fluorophore [UndPPT-Fl] | – | – | – | 330 ± 70 | tolerates |
